Measured values from paper PMC12144444, “Cooperative inhibition in cytochrome P450 between a substrate and an apparent noncompetitive inhibitor” (The Journal of Biological Chemistry, 2025).

Molecular target: CYP105A1 R84A (Streptomyces griseolus, UniProt P18326, R84A)
Conditions: diclofenac 4′-hydroxylation, Lineweaver-Burk and Dixon plots
Protocol: Ethanol concentration in the final reaction solution was 0.8%. […] After each interval, the reaction was stopped by an addition of 50 μl of acetonitrile into each reaction solution. The solution was centrifuged at 10,000 x g for 15 min, and the resultant supernatant was analyzed by ultra performance liquid chromatography (UPLC) under the following conditions: apparatus, H-Class (Waters Co.); column, ACQUITY UPLC BEH C18 (1.7 μm, 2.1 × 100 mm) (Waters Co.); UV detection, 276 nm; column temperature, 40 °C; flow rate, 0.7 ml/min; injection volume, 10 μl; mobile phase, a linear gradient of 25 to 43% acetonitrile in aqueous solution containing 0.1% trifluoroacetic acid (TFA) for 3 min, followed by 43 to 58% acetonitrile in aqueous solution containing 0.1% TFA for 1 min, followed by 58 to 100% acetonitrile in aqueous solution containing 0.1% TFA for 2 min. […] Two separate experiments were performed to obtain the kobs value for 30 μM diclofenac in 5 μM miconazole. Three separate experiments were performed to obtain all other kobs values. Lineweaver-Burk plot and Dixon plot were prepared from the obtained kobs for each reaction.

Row | SMILES | Type of inhibition
1 | N#C/C(=C1/SCC(c2ccccc2Cl)S1)n1ccnc1 (centres unmarked) [Lanoconazole] | noncompetitive inhibition
2 | Clc1ccc(COC(Cn2ccnc2)c2ccc(Cl)cc2Cl)c(Cl)c1 (centres unmarked) [Miconazole] | competitive inhibition
